Molecules are shown by their SMILES. *1 amine or outer side, *2 acyl side, *3 side chain or, on linkers, in order; H or OH if unused. Where a SMILES comes first, the peptide text is derived from it. Bridges are numbered along the chain shown (N, C = ends). [ ]: non-standard residue; d: D form. The star is where a group is joined. ξ: configuration not given here. Phe(3-CF3) = N[C@@H](Cc1cccc(C(F)(F)F)c1)C(=O)O; Phe(4-CF3) = N[C@@H](Cc1ccc(C(F)(F)F)cc1)C(=O)O; Phe(4-COOH) = N[C@@H](Cc1ccc(C(=O)O)cc1)C(=O)O; Bip = N[C@@H](Cc1ccc(-c2ccccc2)cc1)C(=O)O; Phe(3-Me) = Cc1cccc(C[C@H](N)C(=O)O)c1; γGlu = O=C(O)[C@H](CCC(=O)[*:2])N[*:1]; βAsp = O=C(O)[C@H](CC(=O)[*:2])N[*:1]; NH(CH2)12COOH = O=C(O)CCCCCCCCCCCCN*; Val(3-OH) = CC(C)(O)[C@H](N)C(=O)O; 4Pal = N[C@@H](Cc1ccncc1)C(=O)O; Cha = N[C@@H](CC1CCCCC1)C(=O)O; Cit = NC(=O)NCCC[C@H](N)C(=O)O; Ile(3ξ) = CCC(C)[C@H](N)C(=O)O; Thr(3ξ) = CC(O)[C@H](N)C(=O)O; Carboxymethyl = O=C(O)C*; NMeA = CN[C@@H](C)C(=O)O; Nle = CCCC[C@H](N)C(=O)O; Orn = NCCC[C@H](N)C(=O)O; Aun = NCCCCCCCCCCC(=O)O; Dab = NCC[C@H](N)C(=O)O; Dap = NC[C@H](N)C(=O)O; AEEA = NCCOCCOCC(=O)O

From US20260070945A1, “MACROCYCLIC IMMUNOMODULATORS” (Bristol-Myers Squibb Company, priority 2022, published 2026) come the findings set out here.

T1 sequence (Q15116 25-288): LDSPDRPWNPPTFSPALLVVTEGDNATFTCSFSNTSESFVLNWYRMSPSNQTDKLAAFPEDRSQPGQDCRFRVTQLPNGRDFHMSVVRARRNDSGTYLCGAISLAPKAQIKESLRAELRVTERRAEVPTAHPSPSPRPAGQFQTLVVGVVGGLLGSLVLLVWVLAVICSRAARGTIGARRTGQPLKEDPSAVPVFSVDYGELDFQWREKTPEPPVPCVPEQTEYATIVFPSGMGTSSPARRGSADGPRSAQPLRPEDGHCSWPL

One experiment has as its target T1, PD-1/PD-L1 interaction (PE-labeled human PD-L1-Ig binding to Jurkat cell line over-expressing human PD-1) (Homo sapiens, UniProt Q15116).
T1 construct: expressed in transfected cells; host or cells: Jurkat
The experiment in a line: Jurkat-PD-1 Cell Binding High-Content Screening Assay (CBA). The following applies: Jurkat-hPD-1 cells, PE-labeled PD-L1-Ig 20 nM final; read-out: Jurkat HPD1 PDL1 IC50. The gist of the method: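 Read-out: high-content imaging of cell-bound PE fluorescence, with Hoechst 33342 nuclear counterstain after paraformaldehyde fixation. Before labeled ligand (20 nM final, 1 h) was added, compound sat on the cells for 2 h at 37 °C in DMEM/10% FCS.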
With `CC(C)C[C@H]1NC(=O)[C@H](C)N(C)C(=O)[C@H](Cc2ccc(O)cc2)NC(=O)[C@H](Cc2ccc(-c3ccccc3)cc2)NC(=O)[C@H](C(C)C)NC(=O)[C@H](Cc2c[nH]c3ccccc23)NC(=O)[C@H](CC(=O)O)NC(=O)[C@H](Cc2ccc(OCC(=O)O)cc2)NC(=O)[C@H](C(C)O)NC(=O)CSC[C@@H](C(=O)N[C@H](CC(N)=O)C(=O)NCCCCCCCCCCC(=O)O)NC(=O)[C@H](CCCN)NC(=O)[C@H](C(C)C)NC(=O)[C@H](CC2CCCCC2)NC(=O)[C@H](CCN)NC1=O` (stereo partly drawn) [Example 2242] ({CH2CO}-[Thr(3ξ)]Y(Carboxymethyl)DWV[Bip]Y[NMeA][dL][Dab][Cha]V[Orn]C[dN][Aun]-OH; thioether N-14), the 50% inhibitory concentration (IC50) came out at 0.114 µM.
`CCC(C)[C@@H]1NC(=O)[C@H](Cc2ccc(-c3ccccc3)cc2)NC(=O)[C@H](C(C)C)NC(=O)[C@H](Cc2c[nH]c3ccccc23)NC(=O)[C@H](CC(=O)O)NC(=O)[C@H](Cc2ccncc2)NC(=O)[C@H](Cc2ccc(OCC(=O)O)cc2)NC(=O)CSC[C@@H](C(=O)N[C@@H](CCCCN)C(=O)NCCOCCOCC(=O)NCCCCCCCCCCC(=O)O)NC(=O)[C@H](C(C)O)NC(=O)[C@H](C(C)C)NC(=O)[C@H](CC2CCCCC2)NC(=O)[C@H](CCN)NC(=O)[C@@H](CC(C)C)NC(=O)[C@H](C)N(C)C1=O` (stereo partly drawn) [Example 2107] ({CH2CO}-Y(Carboxymethyl)[4Pal]DWV[Bip][Ile(3ξ)][NMeA][dL][Dab][Cha]V[Thr(3ξ)]CK[AEEA][Aun]-OH; thioether N-14): the IC50 came out at 0.0219 µM.
As for `CC(C)C[C@@H]1NC(=O)[C@H](Cc2c[nH]c3ccccc23)NC(=O)[C@H](CC(=O)O)NC(=O)[C@H](Cc2ccc(OCC(=O)O)cc2)NC(=O)[C@H](CCCNC(N)=O)NC(=O)CSC[C@@H](C(=O)N[C@@H](CC(N)=O)C(=O)N[C@@H](CC(=O)NCCOCCOCC(=O)NCCCCCCCCCCC(=O)O)C(=O)O)NC(=O)[C@H](CO)NC(=O)[C@H](C(C)C)NC(=O)[C@H](CC2CCCCC2)NC(=O)[C@H](CC(N)=O)NC(=O)[C@@H](CC(C)C)NC(=O)[C@H](C)N(C)C(=O)[C@H](C(C)C)NC(=O)[C@H](Cc2ccc(-c3ccccc3)cc2)NC1=O` [Example 2026] ({CH2CO}-[Cit]Y(Carboxymethyl)DWL[Bip]V[NMeA][dL]N[Cha]VSCN[βAsp][AEEA][Aun]-OH; thioether N-14), the IC50 was 0.237 µM.
Regarding `Cc1cccc(C[C@@H]2NC(=O)[C@H](CC(=O)O)NC(=O)[C@H](Cc3ccc(C(=O)O)cc3)NC(=O)[C@H](C(C)O)NC(=O)CSC[C@@H](C(=O)N[C@@H](CCN)C(=O)NCCOCCOCC(=O)NCCCCCCCCCCC(=O)O)NC(=O)[C@H](Cc3ccc(C(=O)O)cc3)NC(=O)[C@H](C(C)C)NC(=O)[C@H](CC3CCCCC3)NC(=O)[C@H](CCN)NC(=O)[C@@H](CC(C)C)NC(=O)[C@H](C)N(C)C(=O)[C@H](Cc3ccc(OCC(=O)O)cc3)NC(=O)[C@H](Cc3ccc(-c4ccccc4)cc3)NC(=O)[C@H](Cc3ccc(C(=O)O)cc3)NC2=O)c1` (stereo partly drawn) [Example 2477] ({CH2CO}-[Thr(3ξ)][Phe(4-COOH)]D[Phe(3-Me)][Phe(4-COOH)][Bip]Y(Carboxymethyl)[NMeA][dL][Dab][Cha]V[Phe(4-COOH)]C[Dab][AEEA][Aun]-OH; thioether N-14), the IC50 was found to be 0.0245 µM.
As to `CCCC[C@@H]1NC(=O)CSC[C@@H](C(=O)N[C@@H](CCN)C(=O)NCCOCCOCC(=O)N[C@@H](CCC(=O)NCCOCCOCC(=O)NCCCCCCCCCCCCC(=O)O)C(=O)O)NC(=O)[C@H](CCC(=O)O)NC(=O)[C@H](C(C)C)NC(=O)[C@H](CC2CCCCC2)NC(=O)[C@H](CCN)NC(=O)[C@@H](CC(C)C)NC(=O)[C@H](C)N(C)C(=O)[C@H](Cc2ccc(OCC(=O)O)cc2)NC(=O)[C@H](Cc2ccc(-c3ccccc3)cc2)NC(=O)[C@H](Cc2ccc(OCC(=O)O)cc2)NC(=O)[C@H](Cc2cccc(C)c2)NC(=O)[C@H](CC(=O)O)NC(=O)[C@H](Cc2ccc(OCC(=O)O)cc2)NC1=O` [Example 2011] ({CH2CO}-[Nle]Y(Carboxymethyl)D[Phe(3-Me)]Y(Carboxymethyl)[Bip]Y(Carboxymethyl)[NMeA][dL][Dab][Cha]VEC[Dab][AEEA][γGlu][AEEA]-{NH(CH2)12COOH}; thioether N-14), the IC50 was 0.0883 µM.
Consider `COC[C@@H]1NC(=O)CSC[C@@H](C(=O)N[C@@H](CCN)C(=O)NCCCCCCCCCCCCC(=O)O)NC(=O)[C@H](CC(=O)O)NC(=O)[C@H](C(C)(C)O)NC(=O)[C@H](CC2CCCCC2)NC(=O)[C@H](CCN)NC(=O)[C@@H](CC(C)C)NC(=O)[C@H](C)N(C)C(=O)[C@H](CCCNC(N)=O)NC(=O)[C@H](Cc2ccc(-c3ccccc3)cc2)NC(=O)[C@H](Cc2ccc(C(=O)O)cc2)NC(=O)[C@H](Cc2cccc(C(F)(F)F)c2)NC(=O)[C@H](CC(=O)O)NC(=O)[C@H](Cc2ccc(OCC(=O)O)cc2)NC1=O` [Example 1138] ({CH2CO}-S(Me)Y(Carboxymethyl)D[Phe(3-CF3)][Phe(4-COOH)][Bip][Cit][NMeA][dL][Dab][Cha][Val(3-OH)]DC[Dab]-{NH(CH2)12COOH}; thioether N-14), for which the half-inhibitory concentration (IC50) was 0.0112 µM.
In the case of `Cc1cccc(C[C@@H]2NC(=O)[C@H](CC(=O)O)NC(=O)[C@H](Cc3ccc(OCC(=O)O)cc3)NC(=O)[C@H](CN)NC(=O)CSC[C@@H](C(=O)N[C@@H](CCN)C(=O)NCCOCCOCC(=O)NCCCCCCCCCCC(=O)O)NC(=O)[C@H](CCCN)NC(=O)[C@H](C(C)C)NC(=O)[C@H](CC3CCCCC3)NC(=O)[C@H](CCN)NC(=O)[C@@H](CC(C)C)NC(=O)[C@H](C)N(C)C(=O)[C@H](Cc3ccc(O)cc3)NC(=O)[C@H](Cc3ccc(-c4ccccc4)cc3)NC(=O)[C@H](C(C)C)NC2=O)c1` [Example 1314] ({CH2CO}-[Dap]Y(Carboxymethyl)D[Phe(3-Me)]V[Bip]Y[NMeA][dL][Dab][Cha]V[Orn]C[Dab][AEEA][Aun]-OH; thioether N-14), the half-maximal inhibitory concentration (IC50) was 0.007 µM.
For `CC(C)C[C@@H]1NC(=O)[C@H](Cc2c[nH]c3ccccc23)NC(=O)[C@H](CC(=O)O)NC(=O)[C@H](Cc2ccc(C(=O)O)cc2)NC(=O)[C@H](Cc2ccc(OCC(=O)O)cc2)NC(=O)CSC[C@@H](C(=O)NCC(=O)N[C@@H](CCC(=O)O)C(=O)NCC(=O)NCCCCCCCCCCC(=O)O)NC(=O)[C@H](CO)NC(=O)[C@H](C(C)C)NC(=O)[C@H](CC2CCCCC2)NC(=O)[C@H](CCN)NC(=O)[C@@H](CC(C)C)NC(=O)[C@H](C)N(C)C(=O)[C@H](C(C)C)NC(=O)[C@H](Cc2ccc(-c3ccccc3)cc2)NC1=O` [Example 1032] ({CH2CO}-Y(Carboxymethyl)[Phe(4-COOH)]DWL[Bip]V[NMeA][dL][Dab][Cha]VSCGEG[Aun]-OH; thioether N-14), the IC50 was found to be 0.0159 µM.

Still in this experiment, the particulars now being: PE-labeled PD-L1-Ig 20 nM final, Jurkat-hPD-1 cells; read-out: Jurkat HPD1 PDL1 IC50.
For `CC(=O)NCCCC[C@@H]1NC(=O)[C@H](C(C)(C)O)NC(=O)[C@H](CC2CCCCC2)NC(=O)[C@H](CCN)NC(=O)[C@@H](CC(C)C)NC(=O)[C@H](C)N(C)C(=O)[C@H](CCC(N)=O)NC(=O)[C@H](Cc2ccc(-c3ccccc3)cc2)NC(=O)[C@H](Cc2ccc(C(=O)O)cc2)NC(=O)[C@H](Cc2cccc(C)c2)NC(=O)[C@H](CC(=O)O)NC(=O)[C@H](Cc2ccc(OCC(=O)O)cc2)NC(=O)[C@H](Cc2ccc(C(F)(F)F)cc2)NC(=O)CSC[C@@H](C(=O)N[C@@H](CCN)C(=O)NCCCCCCCCCCCCC(=O)O)NC1=O` [Example 2619] ({CH2CO}-[Phe(4-CF3)]Y(Carboxymethyl)D[Phe(3-Me)][Phe(4-COOH)][Bip]Q[NMeA][dL][Dab][Cha][Val(3-OH)]K(Ac)C[Dab]-{NH(CH2)12COOH}; thioether N-14), the IC50 came out at 0.0439 µM.
